# From article PMC11126973, “Targeting the Plasmodium falciparum UCHL3 ubiquitin hydrolase using chemically constrained peptides” (Proceedings of the National Academy of Sciences of the …, 2024)
# Where “and” joins values, the source holds several entries; their conditions need not be identical. Equal entries are not always repeated. Bridge positions count the residues as written; N and C are the ends. Square brackets hold non-standard residues; d marks the D form. Peptide text beside a SMILES is read from it.
# What was measured:
# PfUCHL3 [1] = biological target: T1, PfUCHL3 (Plasmodium falciparum, UniProt Q8IKM8); assay: biochemical; assay type: binding; set-up: His tag (TEV-cleavable) (cleaved yes); made in house; details: for Kd: BLI, 25 °C
# T1 sequence (Q8IKM8 1-232): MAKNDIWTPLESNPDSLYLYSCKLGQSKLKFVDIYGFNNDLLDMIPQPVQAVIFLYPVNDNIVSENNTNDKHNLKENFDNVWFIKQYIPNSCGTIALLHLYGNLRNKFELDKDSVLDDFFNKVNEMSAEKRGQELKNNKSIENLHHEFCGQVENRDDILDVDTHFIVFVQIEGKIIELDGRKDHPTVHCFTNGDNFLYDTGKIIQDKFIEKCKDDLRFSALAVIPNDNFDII
# Description: BLI experiments were performed using a ForteBio Octet Red96 instrument at 25 °C. Measurements were performed in black 96-well plates with a well volume of 200 μL. Biotinylated Avi-tagged PfUCHL3 was prepared in a buffer containing 50 mM Tris-HCl buffer, 200 mM NaCl, 0.5 mM TCEP, pH 7.5, and loaded at 1 μg/mL for 60 s. Peptides were diluted to a 4 μM stock concentration in the same DMSO:water mix in which they were resuspended from their stock powder (approximately 4%). The final dilutions (to 400 nM, 133.3 nM, and 44.4 nM) were performed in the same buffer as for the PfUCHL3. Streptavidin-coated tips were used with a new tip for each measurement, because regeneration with PfUCHL3 attached to the tip was not possible. The association and dissociation times were 300 s. All data analysis was performed with the instrument software.
# PfUCHL3 [2] = biological target: T1, PfUCHL3; assay: biochemical; set-up: His tag (TEV-cleavable) (cleaved yes); made in house
# Description: (§1) DUB assays were performed in triplicate in 384-well plates (Corning) using a CLARIOstar plus plate reader. PfUCHL3, HsUCHL3, or peptide were diluted in reaction buffer (50 mM Tris-HCl buffer, pH 7.5, 150 mM NaCl, 1 mg/mL BSA, 0.1% DMSO, and 1 mM TCEP) to 4× the desired final peptide/protein concentration (to keep DMSO concentration constant in all reactions). Protein and peptide (or 0.1% DMSO (mock)) were mixed 1:1 and incubated for 10 min at room temperature, with each enzyme complex at 2× the desired final concentration. Enzyme:peptide mixture (10 μL) and Ub-AMC (7-amino-4-methylcoumarin, Boston Biochem) (250 nM, 10 μL) were mixed in a 384-well plate. DUB activity was measured by monitoring the increase in AMC fluorescence. The kinetic trace at each concentration of peptide was corrected for background and then the initial rate of reaction was determined. The rate of reaction was plotted against the concentration of peptide to determine the IC50 using the following equation: Y=Vmax^*X/IC50+X,
# (§2) where Vmax is the reaction rate in the absence of inhibitor, X is the concentration of the peptide inhibitor, and IC50 is the peptide concentration when the rate was inhibited by the peptide by 50%. The data were fitted using Prism (Graphpad).
# HsUCHL3 = system: T2, HsUCHL3; assay: Ub-AMC deubiquitination (DUB) assay, HsUCHL3; assay type: biochemical, human; details: peptide 25 μM, HsUCHL3 31.25 pM
# T2 construct: His tag (TEV-cleavable) (cleaved yes); made in house; host or cells: bacterial cells (purified 'as described above')
# Description: as §1, §2
# PfUCHL3 [3] = biological target: T1, PfUCHL3; assay: Thermal shift assay (TSA) of PfUCHL3 with peptides; assay type: binding; set-up: His tag (TEV-cleavable) (cleaved yes); made in house; host or cells: bacterial cells (purified 'as described above', C41); details: peptide 48 pM to 25 μM, PfUCHL3 5 μM
# Description: Thermal shift assays were performed using a Bio-Rad CFX Connect qPCR instrument, whereby the unfolding is detected by fluorescence of the hydrophobic dye Sypro Orange that binds to the unfolded state of the protein. The experiments were performed in clear-bottom, half-volume, 96-well plates using final well volumes of 25 μL, PfUCHL3 concentration of 5 μM, peptide concentrations ranging from 47 pM to 25 μM, and Sypro Orange:protein concentration ratio of 1:400. PfUCHL3, Sypro orange, and peptide were diluted to 5x concentration in buffer, 1:2,000 concentration in buffer, and 4% DMSO, respectively, before being mixed in the well to a final 1x concentration in buffer. For the PfUCHL3-only control, the peptide was replaced with 4% DMSO and for the buffer control, the PfUCHL3 was replaced with buffer in the sample mix. The samples were incubated at 20 °C for 2 min before increasing by 0.5 °C every 30 s up to 90 °C. At each temperature, the fluorescence intensity was measured using an excitation wavelength of 471 nm and an emission wavelength of 570 nm. Data analysis was performed using the GraphPad Prism software.
SMILES,"Kd (PfUCHL3 [1]; complex profile fitted to heterogeneous model, the tighter of the two Kd values)",IC50 (PfUCHL3 [2]) [nM],koff (PfUCHL3 [1]) [s⁻¹],kon (PfUCHL3 [1]) [M⁻¹ s⁻¹],Kd (PfUCHL3 [1]; 1:1 (1-site) model) [nM],inhibitory effect on the human UCHL3 enzyme (HsUCHL3),dose dependence of PfUCHL3 melting temperature (PfUCHL3 [3])
CC(C)[C@@H]1NC(=O)[C@H](Cc2ccc(O)cc2)NC(=O)[C@H](Cc2c[nH]cn2)NC(=O)[C@H](Cc2c[nH]c3ccccc23)NC(=O)[C@@H]2CCCN2C(=O)[C@H](Cc2c[nH]c3ccccc23)NC(=O)[C@H](Cc2ccccc2)NC(=O)[C@H]([C@@H](C)O)NC(=O)[C@H]([C@@H](C)O)NC(=O)[C@@H](Cc2c[nH]c3ccccc23)NC(=O)CSC[C@@H](C(=O)O)NC(=O)[C@H](CCC(N)=O)NC1=O [Peptide 60297] ({CH2CO}-[dW]TTFWPWHYVQC-OH; thioether N-12),2 nM and ~2 nM,1440 ± 371,,,,,
CC[C@H](C)[C@@H]1NC(=O)[C@H](Cc2ccc(O)cc2)NC(=O)[C@H](CCCNC(=N)N)NC(=O)[C@H](CCC(N)=O)NC(=O)[C@H](Cc2ccc(O)cc2)NC(=O)[C@H](CC(=O)O)NC(=O)[C@@H](Cc2c[nH]c3ccccc23)NC(=O)CSC[C@@H](C(=O)O)NC(=O)[C@H](Cc2c[nH]c3ccccc23)NC(=O)[C@H](CS)NC(=O)[C@H]([C@@H](C)O)NC(=O)[C@H]([C@@H](C)O)NC(=O)[C@H](CC(C)C)NC(=O)[C@H](CCCNC(=N)N)NC(=O)[C@H](Cc2ccccc2)NC(=O)[C@H](CCCCN)NC1=O [Peptide 58474] ({CH2CO}-[dW]DYQRYIKFRLTTCWC-OH; thioether N-16),,,0.00174 ± 9e-05,17100 ± 900,101 ± 7,,
CC[C@H](C)[C@@H]1NC(=O)[C@H](Cc2c[nH]c3ccccc23)NC(=O)[C@H](CC(C)C)NC(=O)[C@H](CCCNC(=N)N)NC(=O)[C@@H](Cc2c[nH]c3ccccc23)NC(=O)CSC[C@@H](C(=O)O)NC(=O)[C@H](CC(=O)O)NC(=O)[C@H](Cc2ccc(O)cc2)NC(=O)[C@H](CCCNC(=N)N)NC(=O)[C@H](CC(N)=O)NC(=O)[C@H](Cc2ccc(O)cc2)NC(=O)[C@H](CCCNC(=N)N)NC(=O)[C@H](CCCNC(=N)N)NC(=O)[C@H](CCC(=O)O)NC(=O)[C@H](CO)NC(=O)[C@H](CC(C)C)NC1=O [Peptide 60296] ({CH2CO}-[dW]RLWILSERRYNRYDC-OH; thioether N-16),,,0.0053 ± 6e-05,569000 ± 16000,,Neither 60296 nor 60297 peptides showed any inhibitory effect,increase in a dose-dependent manner
